Earlier results in patent publication US4127521A, “Novel octacosapeptides, intermediates therefor and pharmaceutical compositions and methods employing said octacosapeptides” (priority 1977, dated 1978).

Experiments:
[1] = injected directly into the brain of the rat
[2] = tested on: brain opiate receptor sites

Substance: H-Tyr-Gly-Gly-Phe-Met-OH [methionine enkephalin]
- analgesic activity [1]: weak analgesic agent of short duration
- binding to partially purified brain opiate receptor sites [2]: binds stereo-specifically
